Test results from the NIST ThermoML archive (doi:10.1016/j.fluid.2004.10.025).
± gives the expanded uncertainty stated by the source.

Details: Liquid

Compound | vapor or sublimation pressure (283.15 K) | vapor or sublimation pressure (288.15 K) | vapor or sublimation pressure (293.15 K) | vapor or sublimation pressure (298.15 K) | vapor or sublimation pressure (303.15 K) | vapor or sublimation pressure (308.15 K) | vapor or sublimation pressure (313.15 K) | vapor or sublimation pressure (318.15 K) | vapor or sublimation pressure (323.15 K)
ClC(Cl)(Cl)Cl [tetrachloromethane] | 7.514 ± 0.042 kPa | 9.601 ± 0.047 kPa | 12.14 ± 0.054 kPa | 15.22 ± 0.064 kPa | 18.98 ± 0.076 kPa | 23.36 ± 0.09 kPa | 28.53 ± 0.11 kPa | 34.59 ± 0.13 kPa | 41.68 ± 0.15 kPa
ClC(Cl)C(Cl)Cl [1,1,2,2-tetrachloroethane] | 0.263 ± 0.021 kPa | 0.373 ± 0.021 kPa | 0.521 ± 0.022 kPa | 0.711 ± 0.023 kPa | 0.98 ± 0.025 kPa | 1.289 ± 0.028 kPa | 1.701 ± 0.028 kPa | 2.236 ± 0.029 kPa | 2.86 ± 0.03 kPa
ClC(Cl)=C(Cl)Cl [tetrachloroethene] | 1.023 ± 0.026 kPa | 1.4 ± 0.027 kPa | 1.861 ± 0.028 kPa | 2.462 ± 0.029 kPa | 3.205 ± 0.031 kPa | 4.117 ± 0.033 kPa | 5.253 ± 0.036 kPa | 6.621 ± 0.039 kPa | 8.286 ± 0.043 kPa
